Measurements reported in US12583815B2, “Inhibitors of YAP/TAZ-TEAD oncoproteins, synthesis and use thereof” (BRIDGENE BIOSCIENCES, INC., priority 2020, dated 2026).

The compounds below were run against T1, TEAD1 (Homo sapiens, UniProt P28347) (assay: TEAD1-Luciferase reporter assay (MCF-7 cell-based TEAD1-Luc assay)). Conditions: cells treated with compound overnight, luciferase chemiluminescence readout.
T1 construct: endogenous in cells; host or cells: MCF-7
Experimental: TEAD1-Luciferase Reporter Assay to Characterize the Pharmacological Properties of the Tead1 Covalent Inhibitors
FIG. 1 is a schematic illustration of the mechanism of TEAD1 inhibition by the disclosed compounds, which is the theoretical basis for the development of a TEAD-YAP/TAZ cell-based functional assay to characterize the pharmacological properties of the synthesized inhibitor compounds. The MCF-7 cell-based TEAD1-Luc assay for the IC50 measurement was performed as below. Compounds 2, 4, 5, and 7, representing different chemical scaffolds, were characterized. About 200 μL of culture medium was placed in each of the 10^4 cell/well in a 96-well plate. The next day the cells were treated with the synthesized compounds for overnight. The luciferase activity was measured with a chemiluminescent assay kit. Specifically, the plate was equilibrated at room temperature. […] and 50 μL of the medium was left inside. To each well was added 50 μL Luciferase reagents. The plates were gently rocked for more than about 15 minutes at room temperature. The luminescence signal was then read and recorded. Table 2 below summarizes the measured IC50 values for the disclosed compounds.

T1 sequence (P28347 whole entry): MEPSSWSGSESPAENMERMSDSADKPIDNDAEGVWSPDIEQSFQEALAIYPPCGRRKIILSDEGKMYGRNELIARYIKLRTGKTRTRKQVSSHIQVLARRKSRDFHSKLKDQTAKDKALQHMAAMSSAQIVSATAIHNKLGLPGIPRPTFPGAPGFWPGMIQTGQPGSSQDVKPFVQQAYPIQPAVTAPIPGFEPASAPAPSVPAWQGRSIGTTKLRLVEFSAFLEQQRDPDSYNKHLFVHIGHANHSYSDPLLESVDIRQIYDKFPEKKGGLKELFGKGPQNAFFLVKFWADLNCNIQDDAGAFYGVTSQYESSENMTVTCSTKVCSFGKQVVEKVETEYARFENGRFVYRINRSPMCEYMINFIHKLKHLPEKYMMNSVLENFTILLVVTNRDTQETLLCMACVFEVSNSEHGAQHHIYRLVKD

Q: Which IC50 does the source give for `C=CC(=O)Nc1ccc2c(c1)CCC/C2=N\OCCOCC` [Compound 48, (E)-N-(5-((2-ethoxyethoxy)imino)-5,6,7,8-tetrahydronaphthalen-2-yl)acrylamide] here?
A: ≤ 100 nM

Q: `C=CC(=O)Nc1ccc2c(c1)CCc1cn(CCCCC)nc1-2` [Compound 25] was tested. Which IC50 did it give?
A: 100 to 5000 nM

Q: For `C=CC(=O)Nc1cc(Oc2cccc(C(F)(F)F)c2)ccc1F` [Compound 37, N-(2-fluoro-5-(3-(trifluoromethyl)phenoxy)phenyl)acrylamide], which IC50 is on record?
A: ≤ 100 nM

Q: For `C=CC(=O)Nc1ccc2nc(OCCCC)ccc2c1` [Compound 18, N-(2-butoxyquinolin-6-yl)acrylamide], which IC50 is on record?
A: ≤ 100 nM

Q: Which IC50 does the source give for `C=CC(=O)Nc1ccc(-c2cc(C(F)(F)F)cnn2)cc1` [Compound 53, N-(4-(5-(trifluoromethyl)pyridazin-3-yl)phenyl)acrylamide] here?
A: 100 to 5000 nM

Q: Which IC50 does the source give for `C=CC(=O)Nc1ccc2c(OCCCCC)nccc2c1` [Compound 19, N-(1-(pentyloxy)isoquinolin-6-yl)acrylamide] here?
A: ≤ 100 nM

Q: For `C=CC(=O)Nc1ccc2c(OCCCCC)cccc2c1` [Compound 20, N-(5-(pentyloxy)naphthalen-2-yl)acrylamide], which IC50 is on record?
A: ≤ 100 nM

Q: With `C=CC(=O)N[C@@H]1CC[C@@H](Oc2cccc(C(F)(F)F)c2)C1` [Compound 43, N-((1R,3R)-3-(3-(trifluoromethyl)phenoxy)cyclopentyl)acrylamide] as the compound, how does the IC50 read?
A: 100 to 5000 nM

Q: How did the IC50 turn out when `C=CC(=O)N[C@H]1CC[C@H](Oc2cccc(C(F)(F)F)c2)C1` [Compound 44, N-((1S,3S)-3-(3-(trifluoromethyl)phenoxy)cyclopentyl)acrylamide] was run?
A: 100 to 5000 nM

Q: With `C=CC(=O)Nc1cccc(Oc2cccc(OC)c2)c1` [Compound 9, N-(3-(3-methoxyphenoxy)phenyl)acrylamide] as the compound, how does the IC50 read?
A: ≤ 100 nM

Q: How did the IC50 turn out when `C#CCCCO/N=C1\CCCc2cc(NC(=O)C=C)ccc21` [Compound 5] was run?
A: ≥ 5000 nM

Q: With `C=CC(=O)Nc1ccc2c(c1)CCc1c-2noc1CCCC` [Compound 27, N-(3-butyl-4,5-dihydronaphtho[1,2-c]isoxazol-7-yl)acrylamide] as the compound, how does the IC50 read?
A: 100 to 5000 nM

Q: Which IC50 does the source give for `C=CC(=O)Nc1cccc(OC2CCC(F)(F)CC2)c1` [Compound 40, N-(3-((4,4-difluorocyclohexyl)oxy)phenyl)acrylamide] here?
A: ≤ 100 nM

Q: How did the IC50 turn out when `C=CC(=O)Nc1ccc2c(c1)CCC/C2=N\OCCCCC` [Compound 6] was run?
A: ≥ 5000 nM

Q: `C=CC(=O)Nc1ccc(Oc2cccc(C(F)(F)F)c2)s1` [Compound 11, N-(5-(3-(trifluoromethyl)phenoxy)thiophen-2-yl)acrylamide] was tested. Which IC50 did it give?
A: ≤ 100 nM

Q: Which IC50 does the source give for `C#CCCCO/N=C1/CCc2cc(NC(=O)C=C)ccc21` [Compound 7] here?
A: ≥ 5000 nM

Q: How did the IC50 turn out when `C=CC(=O)NC1COCC(Oc2cccc(C(F)(F)F)c2)C1` (stereo not shown) [Compound 39, N-(5-(3-(trifluoromethyl)phenoxy)tetrahydro-2H-pyran-3-yl)acrylamide] was run?
A: 100 to 5000 nM

Q: How did the IC50 turn out when `C=CC(=O)NC1CC(COc2cccc(C(F)(F)F)c2)C1` (stereo not shown) [Compound 58, N-(3-((3-(trifluoromethyl)phenoxy)methyl)cyclobutyl)acrylamide] was run?
A: ≤ 100 nM

Q: How did the IC50 turn out when `C=C(F)C(=O)Nc1ccc2c(c1)CCC/C2=N\OCCCCC` [Compound 29, (E)-2-fluoro-N-(5-((pentyloxy)imino)-5,6,7,8-tetrahydronaphthalen-2-yl)acrylamide] was run?
A: 100 to 5000 nM

Q: How did the IC50 turn out when `C=CC(=O)Nc1ccc(-n2ncc(C(F)(F)F)n2)c(Cl)c1` [Compound 35, N-(3-chloro-4-(4-(trifluoromethyl)-2H-1,2,3-triazol-2-yl)phenyl)acrylamide] was run?
A: ≤ 100 nM

Q: Which IC50 does the source give for `C=CC(=O)Nc1ccc(-c2ccn(CC(F)(F)F)n2)cc1` [Compound 55, N-(4-(1-(2,2,2-trifluoroethyl)-1H-pyrazol-3-yl)phenyl)acrylamide] here?
A: 100 to 5000 nM

Q: Which IC50 does the source give for `C=CC(=O)Nc1ccc(-c2cc(CCCC)on2)cc1` [Compound 26, N-(4-(5-butylisoxazol-3-yl)phenyl)acrylamide] here?
A: ≤ 100 nM

Q: For `C=CC(=O)Nc1ccc(-n2cc(C(F)(F)F)nn2)c(Cl)c1` [Compound 34, N-(3-chloro-4-(4-(trifluoromethyl)-1H-1,2,3-triazol-1-yl)phenyl)acrylamide], which IC50 is on record?
A: ≤ 100 nM

Q: With `C=CC(=O)Nc1ccc2cc(OCCCC)ccc2c1` [Compound 17, N-(6-butoxynaphthalen-2-yl)prop-2-enamide] as the compound, how does the IC50 read?
A: ≤ 100 nM

Q: How did the IC50 turn out when `C=CC(=O)NC1CCC(Oc2cccc(C(F)(F)F)c2)C1` (stereo not shown) [Compound 45, N-(3-(3-(trifluoromethyl)phenoxy)cyclopentyl)acrylamide] was run?
A: 100 to 5000 nM

Q: Which IC50 does the source give for `C=CC(=O)Nc1cccc(Oc2cc(C(F)(F)F)ccn2)c1` [Compound 13, N-(3-((4-(trifluoromethyl)pyridin-2-yl)oxy)phenyl)acrylamide] here?
A: ≤ 100 nM

Q: `C=CC(=O)Nc1ccc2c(c1)OCC/C2=N\OCCCCC` [Compound 16, (E)-N-(4-((pentyloxy)imino)chroman-7-yl)acrylamide] was tested. Which IC50 did it give?
A: ≤ 100 nM

Q: `C=CC(=O)Nc1cc(F)cc(Oc2ccc(C(F)(F)F)cc2)c1` [Compound 12, N-(3-fluoro-5-(4-(trifluoromethyl)phenoxy)phenyl)acrylamide] was tested. Which IC50 did it give?
A: ≤ 100 nM

Q: `C=CC(=O)Nc1ccc2c(c1)CCC/C2=N\OCC` [Compound 47, (E)-N-(5-(ethoxyimino)-5,6,7,8-tetrahydronaphthalen-2-yl)acrylamide] was tested. Which IC50 did it give?
A: ≤ 100 nM

Q: With `C=CC(=O)N[C@H]1CC[C@@H](Oc2cccc(C(F)(F)F)c2)C1` (single isomer, unassigned) [Compound 42, N-((1S*,3R*)-3-(3-(trifluoromethyl)phenoxy)cyclopentyl)acrylamide] as the compound, how does the IC50 read?
A: 100 to 5000 nM

Q: Which IC50 does the source give for `C=CC(=O)Nc1ccc(-c2noc(C(F)(F)F)n2)c(Cl)c1` [Compound 33, N-(3-chloro-4-(5-(trifluoromethyl)-1,2,4-oxadiazol-3-yl)phenyl)acrylamide] here?
A: ≤ 100 nM

Q: How did the IC50 turn out when `C=CC(=O)NC1CCC(Oc2cc(C(F)(F)F)on2)C1` (stereo not shown) [Compound 46, N-(3-((5-(trifluoromethyl)isoxazol-3-yl)oxy)cyclopentyl)acrylamide] was run?
A: 100 to 5000 nM

Q: Which IC50 does the source give for `C=CC(=O)Nc1ccc2c(c1)CC/C2=N/OCCCCC` [Compound 8] here?
A: ≥ 5000 nM

Q: For `CCCCCO/N=C1\CCc2cc(NC(=O)/C=C/CN(C)C)ccc21` [Compound 15, (E)-4-(dimethylamino)-N—((E)-1-((pentyloxy)imino)-2,3-dihydro-1H-inden-5-yl)but-2-enamide], which IC50 is on record?
A: ≤ 100 nM

Q: How did the IC50 turn out when `C=CC(=O)Nc1ccc(-c2cc(C(F)(F)F)ccn2)cc1` [Compound 51, N-(4-(4-(trifluoromethyl)pyridin-2-yl)phenyl)acrylamide] was run?
A: 100 to 5000 nM

Q: `C=CC(=O)Nc1cccc(Oc2ccc(C(F)(F)F)cn2)c1` [Compound 14, N-(3-((5-(trifluoromethyl)pyridin-2-yl)oxy)phenyl)acrylamide] was tested. Which IC50 did it give?
A: ≤ 100 nM

Q: Which IC50 does the source give for `C=CC(=O)Nc1cccc(Oc2csc(C(F)(F)F)c2)c1` [Compound 10, N-(3-((5-(trifluoromethyl)thiophen-3-yl)oxy)phenyl)acrylamide] here?
A: ≤ 100 nM

Q: `C=CC(=O)Nc1ccc(-c2nocc2C(F)(F)F)cc1` [Compound 31, N-(4-(4-(trifluoromethyl)isoxazol-3-yl)phenyl)acrylamide] was tested. Which IC50 did it give?
A: ≤ 100 nM

Q: With `C=CC(=O)Nc1ccc(-c2cc(C(F)(F)F)on2)cc1` [Compound 28, N-(4-(5-(trifluoromethyl)isoxazol-3-yl)phenyl)acrylamide] as the compound, how does the IC50 read?
A: ≤ 100 nM

Q: Which IC50 does the source give for `C#Cc1cccc(Oc2ccccc2NC(=O)CCl)c1` [Compound 1] here?
A: ≥ 5000 nM

Q: `C=CC(=O)N1CC(Oc2ccc(C(F)(F)F)cc2)C1` [Compound 56, 1-(3-(4-(trifluoromethyl)phenoxy)azetidin-1-yl)prop-2-en-1-one] was tested. Which IC50 did it give?
A: 100 to 5000 nM

Q: How did the IC50 turn out when `C=CC(=O)NC1CC(OCc2cccc(C(F)(F)F)c2)C1` (stereo not shown) [Compound 61, N-(3-((3-(trifluoromethyl)benzyl)oxy)cyclobutyl)acrylamide] was run?
A: ≤ 100 nM

Q: With `C=CC(=O)N1CC(NCc2cccc(C(F)(F)F)c2)C1` [Compound 60, 1-(3-((3-(trifluoromethyl)benzyl)amino)azetidin-1-yl)prop-2-en-1-one] as the compound, how does the IC50 read?
A: 100 to 5000 nM
